The record followed here is patent US20220119456A1, “ANTI-SARS-COV-2 FUSION PEPTIDES” (KING FAISAL UNIVERSITY, priority 2020, published 2022).

Usually IC50 stands for the concentration that inhibits the measured activity by half. A low value points to higher potency.

Like-named read-outs stand apart in the source and are kept apart here. Where a SMILES comes first, the peptide text is derived from it.

In assay [1] the test system is SARS-CoV-2 Spike-mediated cell-cell fusion.
A further assay has as its system SARS-CoV-2. The note with it: for reduction in SARS-CoV-2 plaques formation: 10 μM peptide, Vero E6 cells.
Assay [2] deals with SARS-CoV-2 S pseudotyped VSV viral particles.
For assay [3] the test system is unchanged. The source holds these as a separate data set.
Assay [4] has the same test system. This is another data set of the same source.
Setting [5] is: S pseudotyped VSV viral particles.

As for `CC[C@H](C)[C@H](NC(=O)CNC(=O)[C@H](CCCNC(=N)N)NC(=O)[C@@H](NC(=O)[C@H](CCC(N)=O)NC(=O)[C@H](CCCNC(=N)N)NC(=O)[C@H](CC(C)C)NC(=O)[C@H](CCCNC(=N)N)NC(=O)[C@@H](N)Cc1c[nH]cn1)[C@@H](C)CC)C(=O)N[C@@H](CCCNC(=N)N)C(=O)N[C@@H](C)C(=O)N[C@@H](CCCNC(=N)N)C(=O)N[C@H](C(=O)N[C@H](C(=O)N[C@@H](CCC(N)=O)C(=O)N[C@H](C(=O)N[C@@H](CCC(N)=O)C(=O)N[C@@H](CCCCN)C(=O)N[C@@H](CCC(=O)O)C(=O)N[C@H](C(=O)N[C@@H](Cc1c[nH]c2ccccc12)C(=O)N[C@@H](CCCNC(=N)N)C(=O)N[C@@H](CC(C)C)C(=O)N[C@@H](CC(N)=O)C(=O)N[C@@H](CCC(=O)O)C(=O)N[C@H](C(=O)N[C@@H](C)C(=O)N[C@@H](CCCCN)C(=O)N[C@@H](CC(C)C)C(=O)N[C@@H](CC(C)C)C(=O)N[C@@H](CC(N)=O)C(=O)N[C@@H](CCC(=O)O)C(=O)N[C@@H](CO)C(=O)N[C@@H](CC(C)C)C(=O)N[C@H](C(=O)N[C@@H](Cc1ccc(O)cc1)C(=O)N[C@@H](CC(C)C)C(=O)N[C@@H](CCC(N)=O)C(=O)N[C@@H](CCC(=O)O)C(=O)O)[C@@H](C)CC)C(C)C)[C@@H](C)CC)[C@@H](C)CC)C(C)C)C(C)C` [#125] (H-HRLRQIRGIRARVVQIQKEIWRLNEVAKLLNESLIYLQE-OH), in assay [1], the IC50 was 4400 nM. For the same molecule, in the assay on SARS-CoV-2, the IC50 is 460 nM and the “reduction in SARS-CoV-2 plaques formation” value was determined as 75%.
For the molecule `CC[C@H](C)[C@H](NC(=O)CNC(=O)[C@H](CO)NC(=O)[C@@H](NC(=O)[C@H](CC(=O)O)NC(=O)CNC(=O)[C@H](CC(C)C)NC(=O)[C@@H](NC(=O)[C@@H](N)Cc1c[nH]cn1)C(C)C)[C@@H](C)CC)C(=O)N[C@@H](CC(N)=O)C(=O)N[C@@H](C)C(=O)N[C@@H](CO)C(=O)N[C@H](C(=O)N[C@H](C(=O)N[C@@H](CCC(N)=O)C(=O)N[C@H](C(=O)N[C@@H](CCC(N)=O)C(=O)N[C@@H](CCCCN)C(=O)N[C@@H](CCC(=O)O)C(=O)N[C@H](C(=O)N[C@@H](CC(=O)O)C(=O)N[C@@H](CCCNC(=N)N)C(=O)N[C@@H](CC(C)C)C(=O)N[C@@H](CC(N)=O)C(=O)N[C@@H](CCC(=O)O)C(=O)N[C@H](C(=O)N[C@@H](C)C(=O)N[C@@H](CCCCN)C(=O)N[C@@H](CC(N)=O)C(=O)N[C@@H](CC(C)C)C(=O)N[C@@H](Cc1c[nH]cn1)C(=O)N[C@@H](CCC(=O)O)C(=O)N[C@@H](CO)C(=O)N[C@@H](CC(C)C)C(=O)N[C@H](C(=O)N[C@@H](Cc1ccc(O)cc1)C(=O)N[C@@H](CC(C)C)C(=O)N[C@@H](CCC(N)=O)C(=O)N[C@@H](CCC(=O)O)C(=O)O)[C@@H](C)CC)C(C)C)[C@@H](C)CC)[C@@H](C)CC)C(C)C)C(C)C` [#121], the “inhibition of TMPRSS2-dependent pseudovirus infection through plasma membrane” value in assay [2] is “strong inhibition”. The IC50 in assay [2] (setting [5]) is less than 1000 nM; in assay [3] it was 160 nM; in assay [1] it was 720 nM; in assay [4] (setting [5]), more than 10000 nM. Also, the “inhibition against the infection through the endocytosis pathway in VeroE6 cells” value in assay [4] was not above 38%. Further, in the assay on SARS-CoV-2, the “reduction in SARS-CoV-2 plaques formation” value is on record as “approximately 15%”.
